Assay results published in ChEMBL document CHEMBL1128072, “The synthesis and biological evaluation of hypericin analogs” (Bioorg Med Chem Lett, 1995).
Active and inactive are the calls of the source. The rule behind the calls is not given here.

Columns and labels:
[1] = tested on: Equine infectious anemia virus; experiment: In vitro anti-retroviral activity against equine infectious anemia virus(EIAV); compound was active; type: functional, organism-based
[2] = tested on: Equine infectious anemia virus; experiment: In vitro anti-retroviral activity against equine infectious anemia virus(EIAV); Inactive; type: functional, organism-based

COc1cc(O)c2c(=O)c3c(O)cc(O)c4c5c(O)cc(O)c6c(=O)c7c(O)cc(OC)c8c1c2c(c34)c(c65)c78
Activity [1]: Active

Cc1cc(O)c2c(=O)c3c(O)cc(O)c4c5c(O)cc(O)c6c(=O)c7c(O)cc(C)c8c1c2c(c34)c(c78)c65
Activity [1]: Active

Cc1c(O)c2c(=O)c3c(O)c(C)c(O)c4c5c(O)c(C)c(O)c6c(=O)c7c(O)c(C)c(O)c8c(c1O)c2c(c34)c(c78)c65
Activity [2]: inactive

O=c1c2c(O)cc(O)c3c4c(O)cc(O)c5c(=O)c6c(O)cc(O)c7c8c(O)cc(O)c1c8c(c23)c(c54)c67
Activity [2]: inactive
